Read-outs that look alike come from different tables or passages of the source.
Key:
[1] = 8 mg/mL; for Osmolality / [Furosemide] / pH: three months
[2] = Example 4 short term storage stability of 8 mg/mL furosemide Tris-buffered solutions; conditions: over 48 hours
Protocol: Upon preparation, samples were filtered through 0.2 μm nylon filters.
The osmolality values of 50 μL aliquots of each sample were measured by freezing point depression.
Aliquots of each sample were stored at each condition and subsequently filtered and analyzed after 24 and 48 hours of storage.

[3] = 25 mM Tris, nominal pH 7.0, 70° C.
[4] = 25 mM Tris, nominal pH 7.4, 70° C.
[5] = 25 mM Tris, nominal pH 8.0, 70° C.
[6] = 50 mM Tris, nominal pH 7.0, 70° C.
[7] = 50 mM Tris, nominal pH 7.4, 70° C.
[8] = 50 mM Tris, nominal pH 8.0, 70° C.
[9] = 100 mM Tris, nominal pH 7.0, 70° C.
[10] = 100 mM Tris, nominal pH 7.4, 70° C.
[11] = 100 mM Tris, nominal pH 8.0, 70° C.
[12] = 25, 50, 100 mM Tris, pH 7.0, 7.4, 8.0, 70° C., 3 months
[13] = Tris buffer pH 7.0, 7.5, 8.0, −20° C., 2° C.-8° C., 25° C., 40° C.

Compound: NS(=O)(=O)c1cc(C(=O)O)c(NCc2ccco2)cc1Cl [Furosemide, 4-chloro-2-(furan-2-ylmethylamino)-5-sulfamoyl-benzoic acid]
- Osmolality [1, 3]: 308 mOsm/kg H2O
- [Furosemide] [1, 3]: <0.002 mg/mL
- pH [1, 3]: 4.44
- Osmolality [1, 4]: 299 mOsm/kg H2O
- [Furosemide] [1, 4]: <0.002 mg/mL
- pH [1, 4]: 4.57
- Osmolality [1, 5]: 297 mOsm/kg H2O
- [Furosemide] [1, 5]: 1.16 mg/mL
- pH [1, 5]: 5.26
- Osmolality [1, 6]: 305 mOsm/kg H2O
- [Furosemide] [1, 6]: <0.002 mg/mL
- pH [1, 6]: 4.50
- Osmolality [1, 7]: 311 mOsm/kg H2O
- [Furosemide] [1, 7]: <0.002 mg/mL
- pH [1, 7]: 4.73
- Osmolality [1, 8]: 311 mOsm/kg H2O
- [Furosemide] [1, 8]: 3.60 mg/mL
- pH [1, 8]: 7.30
- Osmolality [1, 9]: 306 mOsm/kg H2O
- [Furosemide] [1, 9]: <0.002 mg/mL
- pH [1, 9]: 4.54
- Osmolality [1, 10]: 312 mOsm/kg H2O
- [Furosemide] [1, 10]: 0.58 mg/mL
- pH [1, 10]: 5.68
- Osmolality [1, 11]: 303 mOsm/kg H2O
- [Furosemide] [1, 11]: 3.67 mg/mL
- pH [1, 11]: 7.56
- change in furosemide concentration [1, 12]: decreased significantly
- change in osmolality [1, 12]: slightly increased
- change in pH [1, 12]: decreased significantly
- color of samples [1, 12]: dark brown
- change in furosemide concentration [2, 13]: No decrease
- pH deviation from the initial value [2, 13]: ≤ 0.1 units
- osmolality over time ([2]; Tris buffer): consistent
